Experimental data reported in US9115137B2, “2,3,4,5-tetrahydro-1H-pyrido[4,3-B]indole compounds and methods of use thereof” (priority 2008, dated 2015).

Key:
[1] = target: T1, rat adrenergic α1A receptor (Rattus norvegicus, UniProt P43140); experiment: Adrenergic α1A radioligand binding ([3H]Prozosin); details: compound at 1 μM; Wistar Rat submaxillary glands; read-out: Adrenergic (1 μM) α1A, percent inhibition of specific binding
T1 construct: obtained from Wistar Rat submaxillary glands; from tissue; host or cells: Wistar rat submaxillary glands
T1 sequence (P43140 1-466): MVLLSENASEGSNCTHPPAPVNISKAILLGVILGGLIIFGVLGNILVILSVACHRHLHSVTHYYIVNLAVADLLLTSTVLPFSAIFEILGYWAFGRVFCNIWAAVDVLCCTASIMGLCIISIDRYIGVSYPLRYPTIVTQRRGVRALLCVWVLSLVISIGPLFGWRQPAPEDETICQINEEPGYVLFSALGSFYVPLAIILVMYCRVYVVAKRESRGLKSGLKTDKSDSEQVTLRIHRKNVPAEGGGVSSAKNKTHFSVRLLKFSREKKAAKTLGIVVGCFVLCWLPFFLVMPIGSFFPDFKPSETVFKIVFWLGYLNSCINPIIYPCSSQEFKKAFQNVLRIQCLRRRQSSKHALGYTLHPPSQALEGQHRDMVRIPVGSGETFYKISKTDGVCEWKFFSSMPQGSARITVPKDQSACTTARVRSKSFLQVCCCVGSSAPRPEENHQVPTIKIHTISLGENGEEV
Description: To evaluate in radioligand binding assays the activity of compounds of the invention, rat adrenergic α1A receptor obtained from Wistar Rat submaxillary glands (Michel, A. D. et al., Br. J. Pharmacol. 98:883, 1989) in a modified Tris-HCl buffer (50 mM Tris-HCl buffer, pH 7.4, 0.5 mM EDTA) was used. Compounds of the invention were incubated with 0.25 nM [^3H]Prozosin for 60 minutes at 25° C. Non-specific binding was estimated in the presence of 10 μM phentolamine. Receptor proteins were filtered and washed, the filters were then counted to determine [^3H]Prozosin specifically bound. Compounds of the invention were screened at 1 μM or lower, using 1% DMSO as vehicle. Compounds of the invention were tested in this biochemical assay and percent inhibition of specific binding was determined. Biochemical assay results are presented as the percent inhibition of specific binding in Table 6.

[2] = target: T2, human recombinant adrenergic α2C receptor (Homo sapiens, UniProt P18825); experiment: Adrenergic α2C radioligand binding ([3H]MK-912); details: compound at 1 μM; insect Sf9 cells; read-out: Adrenergic (1 μM) α2C, percent inhibition of specific binding
T2 construct: expressed in transfected cells; host or cells: insect Sf9 cells
T2 sequence (P18825 1-462): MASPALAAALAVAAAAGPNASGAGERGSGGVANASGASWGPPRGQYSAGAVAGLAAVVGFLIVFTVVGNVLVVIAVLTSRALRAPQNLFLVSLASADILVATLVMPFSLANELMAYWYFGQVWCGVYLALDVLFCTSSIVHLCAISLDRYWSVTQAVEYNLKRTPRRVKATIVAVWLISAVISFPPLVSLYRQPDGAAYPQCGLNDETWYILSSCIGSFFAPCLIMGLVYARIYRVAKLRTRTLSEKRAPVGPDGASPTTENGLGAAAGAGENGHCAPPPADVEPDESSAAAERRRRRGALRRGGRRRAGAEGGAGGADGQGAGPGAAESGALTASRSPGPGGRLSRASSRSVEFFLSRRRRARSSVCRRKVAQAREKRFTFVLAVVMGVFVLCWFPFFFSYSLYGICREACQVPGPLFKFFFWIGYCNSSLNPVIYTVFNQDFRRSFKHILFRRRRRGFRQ
Description: To evaluate in radioligand binding assays the activity of compounds of the invention, human recombinant adrenergic α2C receptor expressed in insect Sf9 cells (Uhlen S et al. J Pharmacol Exp Ther. 271:1558, 1994) in a modified Tris-HCl buffer (50 mM Tris-HCl, pH 7.4, 12.5 mM MgCl2, 2 mM EDTA) was used. Compounds of the invention were incubated with 1 nM [^3H]MK-912 for 60 minutes at 25° C. Non-specific binding was estimated in the presence of 10 μM WB-4101. Receptor proteins were filtered and washed, the filters were then counted to determine [^3H]MK-912 specifically bound. Compounds were screened at 1 μM or lower, using 1% DMSO as vehicle. Compounds of the invention were tested in this biochemical assay and percent inhibition of specific binding was determined. Biochemical assay results are presented as the percent inhibition of specific binding in Table 6.

[3] = target: T3, human recombinant serotonin (5-Hydroxytryptamine) 5-HT2B receptor (Homo sapiens, UniProt P41595); experiment: Serotonin 5-HT2B radioligand binding ([3H]LSD); details: compound at 1 μM; CHO-K1 cells; read-out: Serotonin (1 μM) 5-HT2B, percent inhibition of specific binding
T3 construct: expressed in transfected cells; host or cells: CHO-K1 cells
Description: To evaluate in radioligand binding assays the activity of compounds of the invention, human recombinant serotonin (5-Hydroxytryptamine) 5-HT2B receptor expressed in Chinese hamster ovary (CHO-K1) cells (Bonhaus, D. W. et al., Br. J. Pharmacol. 115:622, 1995) in a modified Tris-HCl buffer (50 mM Tris-HCl, pH 7.4, 4 mM CaCl2, 0.1% Ascorbic Acid) was used. Compounds of invention were incubated with 1.2 nM [^3H]Lysergic acid diethylamide (LSD) for 60 minutes at 37° C. Non-specific binding was estimated in the presence of 10 μM Serotonin (5-HT). Receptor proteins were filtered and washed, the filters were then counted to determine [^3H]LSD specifically bound. Compounds were screened at 1 μM or lower, using 1% DMSO as vehicle. Compounds of the invention were tested in this biochemical assay and percent inhibition of specific binding was determined. Biochemical assay results are presented as the percent inhibition of specific binding in Table 7.

[4] = target: T4, human recombinant serotonin (5-Hydroxytryptamine) 5-HT5A receptor (Homo sapiens, UniProt P47898); experiment: Serotonin 5-HT5A radioligand binding ([3H]LSD); details: compound at 1 μM; CHO-K1 cells; read-out: Serotonin (1 μM) 5-HT5A, percent inhibition of specific binding
T4 construct: expressed in transfected cells; host or cells: CHO-K1 cells
Description: To evaluate in radioligand binding assays the activity of compounds of the invention, human recombinant serotonin (5-Hydroxytryptamine) 5-HT5A receptor expressed in Chinese hamster ovary (CHO-K1) cells (Rees, S. et al., FEBS Lett. 355:242, 1994) in a modified Tris-HCl buffer (50 mM Tris-HCl, pH 7.4, 10 mM MgCl2, 0.5 mM EDTA) was used. Compounds of the invention were incubated with 1.7 nM [^3H]Lysergic acid diethylamide (LSD) for 60 minutes at 37° C. Non-specific binding was estimated in the presence of 100 μM Serotonin (5-HT). Receptor proteins were filtered and washed, the filters were then counted to determine [^3H]LSD specifically bound. Compounds were screened at 1 μM or lower, using 1% DMSO as vehicle. Compounds of the invention were tested in this biochemical assay and percent inhibition of specific binding was determined. Biochemical assay results are presented as the percent inhibition of specific binding in Table 7.

T4 sequence (P47898 whole entry): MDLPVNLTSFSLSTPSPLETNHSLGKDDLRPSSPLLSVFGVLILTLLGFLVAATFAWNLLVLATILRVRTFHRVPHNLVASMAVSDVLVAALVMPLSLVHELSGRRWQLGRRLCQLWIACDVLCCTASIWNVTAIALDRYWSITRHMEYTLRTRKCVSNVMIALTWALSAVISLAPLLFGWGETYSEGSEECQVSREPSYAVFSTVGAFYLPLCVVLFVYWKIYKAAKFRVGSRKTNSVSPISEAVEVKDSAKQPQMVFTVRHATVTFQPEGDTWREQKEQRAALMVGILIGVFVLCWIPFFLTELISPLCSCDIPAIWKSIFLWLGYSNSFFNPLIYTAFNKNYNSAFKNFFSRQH
T3 sequence (P41595 whole entry): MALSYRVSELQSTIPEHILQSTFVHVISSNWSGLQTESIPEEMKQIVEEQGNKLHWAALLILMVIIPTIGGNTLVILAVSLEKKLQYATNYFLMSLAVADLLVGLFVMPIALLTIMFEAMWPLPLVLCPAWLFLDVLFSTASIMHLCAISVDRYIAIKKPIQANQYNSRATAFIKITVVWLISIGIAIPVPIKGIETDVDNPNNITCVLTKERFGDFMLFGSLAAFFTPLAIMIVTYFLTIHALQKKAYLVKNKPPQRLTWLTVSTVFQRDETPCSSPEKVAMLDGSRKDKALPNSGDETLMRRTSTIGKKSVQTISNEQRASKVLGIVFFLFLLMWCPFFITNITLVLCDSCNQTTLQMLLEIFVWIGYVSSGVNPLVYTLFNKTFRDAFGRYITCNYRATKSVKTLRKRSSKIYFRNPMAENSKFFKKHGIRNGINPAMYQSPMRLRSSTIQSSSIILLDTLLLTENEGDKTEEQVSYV

Row | SMILES | inhibition at 1 µM [1] [%] | inhibition at 1 µM [2] [%] | inhibition at 1 µM [3] [%] | inhibition at 1 µM [4] [%]
1 | CCOC(=O)CCn1c2c(c3cc(C)ccc31)CN(C)CC2 [CD1, ethyl 3-(1,2,3,4-tetrahydro-2,8-dimethylpyrido[4,3-b]indol-5-yl)propanoate] | 79 | 42 | 54 | 39
2 | Cc1ccc2c(c1)c1c(n2CC#N)CCN(C)C1 [CD61, 2-(1,2,3,4-tetrahydro-2,8-dimethylpyrido[4,3-b]indol-5-yl)acetonitrile] | 82 | 39 | 43 | 52
3 | C#CCn1c2c(c3cc(C)ccc31)CN(C)CC2 [CD73, 2,8-dimethyl-5-(prop-2-ynyl)-2,3,4,5-tetrahydro-1H-pyrido[4,3-b]indole] | 65 | 43 | 94 | 63
4 | CNC(=O)CCn1c2c(c3cc(C)ccc31)CN(C)CC2 [Compound 1, 3-(1,2,3,4-tetrahydro-2,8-dimethylpyrido[4,3-b]indol-5-yl)-N-methylpropanamide] | 5 | 4 | 23 | 4
5 | CCNC(=O)CCn1c2c(c3cc(C)ccc31)CN(C)CC2 [Compound 2, N-ethyl-3-(1,2,3,4-tetrahydro-2,8-dimethylpyrido[4,3-b]indol-5-yl)propanamide] | 10 | 2 | 20 | 14
6 | Cc1ccc2c(c1)c1c(n2CCC(=O)NC2CCCCC2)CCN(C)C1 [Compound 3, N-cyclohexyl-3-(1,2,3,4-tetrahydro-2,8-dimethylpyrido[4,3-b]indol-5-yl)propanamide] | 8 | 1 | 21 | 35
7 | Cc1ccc2c(c1)c1c(n2CCC(=O)NC2CCCC2)CCN(C)C1 [Compound 4, N-cyclopentyl-3-(1,2,3,4-tetrahydro-2,8-dimethylpyrido[4,3-b]indol-5-yl)propanamide] | 35 | 4 | 40 | 47
8 | CCOC(=O)CCCn1c2c(c3cc(C)ccc31)CN(C)CC2 [Compound 5, ethyl 4-(1,2,3,4-tetrahydro-2,8-dimethylpyrido[4,3-b]indol-5-yl)butanoate] | 69 | 50 | 77 | 62
9 | CCNC(=O)CCCn1c2c(c3cc(C)ccc31)CN(C)CC2 [Compound 6, N-ethyl-4-(1,2,3,4-tetrahydro-2,8-dimethylpyrido[4,3-b]indol-5-yl)butanamide] | 18 | 48 | 21 | 25
10 | Cc1ccc2c(c1)c1c(n2CCNC(=O)OCC(Cl)(Cl)Cl)CCN(C)C1 [Compound 8, 2,2,2-trichloroethyl 2-(1,2,3,4-tetrahydro-2,8-dimethylpyrido[4,3-b]indol-5-yl)ethylcarbamate] | 82 | 22 | 64 | 60
11 | Cc1ccc2c(c1)c1c(n2CCNC(=O)C2CCCNC2)CCN(C)C1 (centres unmarked) [Compound 9, N-(2-(1,2,3,4-tetrahydro-2,8-dimethylpyrido[4,3-b]indol-5-yl)ethyl)piperidine-3-carboxamide] | 5 | -8 | -5 | -6
